# Measured values as given in ChEMBL document CHEMBL1145498, “A systematic interaction map of validated kinase inhibitors with Ser/Thr kinases” (Proc Natl Acad Sci U S A, 2007).
# Target: Serine/threonine-protein kinase pim-2 (Homo sapiens, UniProt Q9P1W9)
# Sequence (Q9P1W9 whole entry, looked up): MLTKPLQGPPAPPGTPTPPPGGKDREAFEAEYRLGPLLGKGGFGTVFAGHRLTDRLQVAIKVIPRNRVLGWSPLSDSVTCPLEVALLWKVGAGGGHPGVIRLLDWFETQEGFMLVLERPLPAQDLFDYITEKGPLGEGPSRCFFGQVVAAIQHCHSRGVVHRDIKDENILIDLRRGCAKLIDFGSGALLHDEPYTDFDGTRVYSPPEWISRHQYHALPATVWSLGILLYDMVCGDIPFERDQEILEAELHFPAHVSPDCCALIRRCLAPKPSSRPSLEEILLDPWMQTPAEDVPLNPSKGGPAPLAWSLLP
row,Structure (SMILES),ΔTm
1,CCOC(=O)c1c(C)[nH]c(/C=C2\C(=O)Nc3ccccc32)c1C,0.1 °C
2,O=C1c2ccccc2-[n+]2ccc3c([nH]c4ccccc43)c21 [FASCAPLYSIN CHLORIDE],-2.4 °C
3,O=C1NC(=O)c2c1c1c3ccccc3n3c1c1c2c2ccccc2n1C1CCC3O1,5.5 °C
4,CCOC(=O)c1cnc2oc3ccc(O)cc3c2c1-c1ccccc1,6.3 °C

# Target: 5'-AMP-activated protein kinase catalytic subunit alpha-2 (Homo sapiens) (UniProt P54646)
row,Structure (SMILES),ΔTm
1,CCOC(=O)c1c(C)[nH]c(/C=C2\C(=O)Nc3ccccc32)c1C,0.5 °C
2,O=C1c2ccccc2-[n+]2ccc3c([nH]c4ccccc43)c21 [FASCAPLYSIN CHLORIDE],0 °C
3,O=C1NC(=O)c2c1c1c3ccccc3n3c1c1c2c2ccccc2n1C1CCC3O1,3.9 °C
4,CCOC(=O)c1cnc2oc3ccc(O)cc3c2c1-c1ccccc1,0 °C

# Target: Serine/threonine-protein kinase 38 (Homo sapiens) (UniProt Q15208)
# Sequence (Q15208 2-465 limits assumed): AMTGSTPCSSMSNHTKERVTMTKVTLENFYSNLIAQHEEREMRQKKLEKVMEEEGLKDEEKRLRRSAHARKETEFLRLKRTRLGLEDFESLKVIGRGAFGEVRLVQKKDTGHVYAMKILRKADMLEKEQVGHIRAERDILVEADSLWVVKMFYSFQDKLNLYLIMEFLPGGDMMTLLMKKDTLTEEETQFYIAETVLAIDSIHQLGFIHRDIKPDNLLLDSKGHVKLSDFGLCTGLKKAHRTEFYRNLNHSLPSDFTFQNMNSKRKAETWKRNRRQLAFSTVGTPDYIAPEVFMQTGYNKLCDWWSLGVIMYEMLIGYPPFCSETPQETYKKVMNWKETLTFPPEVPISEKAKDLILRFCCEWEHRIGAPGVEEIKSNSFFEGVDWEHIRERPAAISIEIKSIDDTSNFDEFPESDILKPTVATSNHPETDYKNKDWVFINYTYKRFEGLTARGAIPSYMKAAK
row,Structure (SMILES),ΔTm
1,CCOC(=O)c1c(C)[nH]c(/C=C2\C(=O)Nc3ccccc32)c1C,-0.1 °C
2,O=C1c2ccccc2-[n+]2ccc3c([nH]c4ccccc43)c21 [FASCAPLYSIN CHLORIDE],-0.5 °C
3,O=C1NC(=O)c2c1c1c3ccccc3n3c1c1c2c2ccccc2n1C1CCC3O1,0 °C
4,CCOC(=O)c1cnc2oc3ccc(O)cc3c2c1-c1ccccc1,0.2 °C

# Target: Casein kinase I isoform gamma-3 (Homo sapiens) (UniProt Q9Y6M4)
# Sequence (Q9Y6M4 whole entry, looked up, canonical isoform): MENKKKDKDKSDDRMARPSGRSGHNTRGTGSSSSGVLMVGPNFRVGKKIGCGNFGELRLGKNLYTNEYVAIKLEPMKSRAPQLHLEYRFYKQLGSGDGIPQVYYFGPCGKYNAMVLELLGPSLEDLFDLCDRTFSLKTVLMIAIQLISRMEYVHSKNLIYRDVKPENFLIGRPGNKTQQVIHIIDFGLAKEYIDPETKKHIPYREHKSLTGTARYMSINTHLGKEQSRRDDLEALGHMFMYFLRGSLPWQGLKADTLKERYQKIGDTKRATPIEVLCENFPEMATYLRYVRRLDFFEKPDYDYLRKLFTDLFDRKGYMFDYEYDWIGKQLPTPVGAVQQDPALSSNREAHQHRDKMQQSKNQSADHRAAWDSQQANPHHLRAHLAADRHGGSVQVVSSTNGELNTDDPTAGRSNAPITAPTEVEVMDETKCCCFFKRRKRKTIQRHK
row,Structure (SMILES),ΔTm
1,CCOC(=O)c1c(C)[nH]c(/C=C2\C(=O)Nc3ccccc32)c1C,0.3 °C
2,O=C1c2ccccc2-[n+]2ccc3c([nH]c4ccccc43)c21 [FASCAPLYSIN CHLORIDE],-0.8 °C
3,O=C1NC(=O)c2c1c1c3ccccc3n3c1c1c2c2ccccc2n1C1CCC3O1,0.3 °C
4,CCOC(=O)c1cnc2oc3ccc(O)cc3c2c1-c1ccccc1,1.1 °C

# Target: Serine/threonine-protein kinase PAK 6 (Homo sapiens) (UniProt Q9NQU5)
# Sequence (Q9NQU5 whole entry, looked up): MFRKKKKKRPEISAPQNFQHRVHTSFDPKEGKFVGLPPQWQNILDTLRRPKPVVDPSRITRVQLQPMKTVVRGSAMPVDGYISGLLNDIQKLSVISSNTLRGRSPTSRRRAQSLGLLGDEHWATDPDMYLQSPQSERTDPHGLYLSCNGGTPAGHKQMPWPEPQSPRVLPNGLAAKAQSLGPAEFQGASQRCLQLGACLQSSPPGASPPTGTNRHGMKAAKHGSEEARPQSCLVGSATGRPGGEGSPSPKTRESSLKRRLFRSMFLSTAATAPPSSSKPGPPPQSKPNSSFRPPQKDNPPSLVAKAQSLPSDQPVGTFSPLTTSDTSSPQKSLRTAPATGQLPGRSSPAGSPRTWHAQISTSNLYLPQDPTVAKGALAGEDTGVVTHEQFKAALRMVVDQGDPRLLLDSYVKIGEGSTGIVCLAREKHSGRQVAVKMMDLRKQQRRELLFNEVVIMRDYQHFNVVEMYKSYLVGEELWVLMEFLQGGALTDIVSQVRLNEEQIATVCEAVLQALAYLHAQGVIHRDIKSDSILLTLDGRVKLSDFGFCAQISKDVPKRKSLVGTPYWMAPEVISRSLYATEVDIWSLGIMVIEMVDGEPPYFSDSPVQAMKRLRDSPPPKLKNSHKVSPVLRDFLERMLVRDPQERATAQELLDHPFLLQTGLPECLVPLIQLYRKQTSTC
row,Structure (SMILES),ΔTm
1,CCOC(=O)c1c(C)[nH]c(/C=C2\C(=O)Nc3ccccc32)c1C,-0.5 °C
2,O=C1c2ccccc2-[n+]2ccc3c([nH]c4ccccc43)c21 [FASCAPLYSIN CHLORIDE],-0.9 °C
3,O=C1NC(=O)c2c1c1c3ccccc3n3c1c1c2c2ccccc2n1C1CCC3O1,1.5 °C
4,CCOC(=O)c1cnc2oc3ccc(O)cc3c2c1-c1ccccc1,0.3 °C

# Target: Serine/threonine-protein kinase 10 (Homo sapiens) (UniProt O94804)
row,Structure (SMILES),ΔTm
1,CCOC(=O)c1c(C)[nH]c(/C=C2\C(=O)Nc3ccccc32)c1C,1.6 °C
2,O=C1c2ccccc2-[n+]2ccc3c([nH]c4ccccc43)c21 [FASCAPLYSIN CHLORIDE],-1.8 °C
3,O=C1NC(=O)c2c1c1c3ccccc3n3c1c1c2c2ccccc2n1C1CCC3O1,-0.5 °C
4,CCOC(=O)c1cnc2oc3ccc(O)cc3c2c1-c1ccccc1,2.9 °C

# Target: Calcium/calmodulin-dependent protein kinase kinase 2 (Homo sapiens, UniProt Q96RR4)
# Sequence (Q96RR4 2-588 limits assumed): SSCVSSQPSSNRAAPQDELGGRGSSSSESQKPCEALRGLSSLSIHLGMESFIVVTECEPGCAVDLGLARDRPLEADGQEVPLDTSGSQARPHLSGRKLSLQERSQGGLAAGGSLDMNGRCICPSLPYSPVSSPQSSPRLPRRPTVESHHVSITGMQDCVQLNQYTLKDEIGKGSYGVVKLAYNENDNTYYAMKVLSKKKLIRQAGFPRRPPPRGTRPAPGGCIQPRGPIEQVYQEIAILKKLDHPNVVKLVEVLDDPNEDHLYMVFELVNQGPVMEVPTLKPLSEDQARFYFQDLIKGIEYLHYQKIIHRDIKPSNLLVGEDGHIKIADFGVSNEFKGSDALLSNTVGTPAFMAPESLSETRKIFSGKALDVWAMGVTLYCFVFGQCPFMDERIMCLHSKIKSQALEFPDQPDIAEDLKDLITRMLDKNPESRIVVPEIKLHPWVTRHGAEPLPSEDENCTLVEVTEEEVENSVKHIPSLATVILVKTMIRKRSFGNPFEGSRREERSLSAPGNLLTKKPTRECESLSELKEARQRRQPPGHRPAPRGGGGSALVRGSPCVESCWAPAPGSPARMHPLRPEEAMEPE
row,Structure (SMILES),ΔTm
1,CCOC(=O)c1c(C)[nH]c(/C=C2\C(=O)Nc3ccccc32)c1C,1.4 °C
2,O=C1c2ccccc2-[n+]2ccc3c([nH]c4ccccc43)c21 [FASCAPLYSIN CHLORIDE],-2.1 °C
3,O=C1NC(=O)c2c1c1c3ccccc3n3c1c1c2c2ccccc2n1C1CCC3O1,-0.3 °C
4,CCOC(=O)c1cnc2oc3ccc(O)cc3c2c1-c1ccccc1,2.3 °C

# Target: T1, Serine/threonine-protein kinase VRK3 (Homo sapiens) (UniProt Q8IV63)
# T1 sequence (whole entry): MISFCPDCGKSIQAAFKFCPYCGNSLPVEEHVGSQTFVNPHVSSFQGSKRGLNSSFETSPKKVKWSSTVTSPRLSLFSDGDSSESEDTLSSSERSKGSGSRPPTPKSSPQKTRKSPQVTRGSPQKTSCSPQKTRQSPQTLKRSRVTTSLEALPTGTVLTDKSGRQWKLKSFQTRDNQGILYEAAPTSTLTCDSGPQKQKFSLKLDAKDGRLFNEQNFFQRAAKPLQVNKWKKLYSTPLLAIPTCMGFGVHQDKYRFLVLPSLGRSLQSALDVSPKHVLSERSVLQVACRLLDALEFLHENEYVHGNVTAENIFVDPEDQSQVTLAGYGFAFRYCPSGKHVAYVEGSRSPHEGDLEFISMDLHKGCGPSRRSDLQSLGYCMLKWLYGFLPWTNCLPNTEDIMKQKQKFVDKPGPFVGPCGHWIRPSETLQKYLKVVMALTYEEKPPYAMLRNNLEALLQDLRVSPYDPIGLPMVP
row,Structure (SMILES),ΔTm
1,CCOC(=O)c1c(C)[nH]c(/C=C2\C(=O)Nc3ccccc32)c1C,-2.2 °C
2,O=C1c2ccccc2-[n+]2ccc3c([nH]c4ccccc43)c21 [FASCAPLYSIN CHLORIDE],-0.4 °C
3,O=C1NC(=O)c2c1c1c3ccccc3n3c1c1c2c2ccccc2n1C1CCC3O1,0 °C
4,CCOC(=O)c1cnc2oc3ccc(O)cc3c2c1-c1ccccc1,-0.6 °C

# Target: cAMP-dependent protein kinase catalytic subunit alpha (Homo sapiens) (UniProt P17612)
row,Structure (SMILES),ΔTm
1,CCOC(=O)c1c(C)[nH]c(/C=C2\C(=O)Nc3ccccc32)c1C,-1.6 °C
2,O=C1c2ccccc2-[n+]2ccc3c([nH]c4ccccc43)c21 [FASCAPLYSIN CHLORIDE],0.6 °C
3,O=C1NC(=O)c2c1c1c3ccccc3n3c1c1c2c2ccccc2n1C1CCC3O1,0.3 °C
4,CCOC(=O)c1cnc2oc3ccc(O)cc3c2c1-c1ccccc1,1.3 °C

# Target: T2, Serine/threonine-protein kinase 17A (Homo sapiens) (UniProt Q9UEE5)
# T2 sequence (whole entry): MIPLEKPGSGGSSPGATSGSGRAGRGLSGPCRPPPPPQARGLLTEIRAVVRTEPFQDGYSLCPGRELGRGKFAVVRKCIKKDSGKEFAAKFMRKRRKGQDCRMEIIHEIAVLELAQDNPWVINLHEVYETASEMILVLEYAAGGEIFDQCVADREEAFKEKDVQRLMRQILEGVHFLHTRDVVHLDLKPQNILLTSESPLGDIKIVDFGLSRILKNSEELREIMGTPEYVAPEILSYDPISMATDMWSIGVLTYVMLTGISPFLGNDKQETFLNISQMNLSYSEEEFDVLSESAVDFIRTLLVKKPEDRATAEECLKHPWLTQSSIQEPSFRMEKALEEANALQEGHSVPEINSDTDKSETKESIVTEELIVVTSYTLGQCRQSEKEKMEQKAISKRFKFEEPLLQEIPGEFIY
row,Structure (SMILES),ΔTm
1,CCOC(=O)c1c(C)[nH]c(/C=C2\C(=O)Nc3ccccc32)c1C,4.5 °C
2,O=C1c2ccccc2-[n+]2ccc3c([nH]c4ccccc43)c21 [FASCAPLYSIN CHLORIDE],1.5 °C
3,O=C1NC(=O)c2c1c1c3ccccc3n3c1c1c2c2ccccc2n1C1CCC3O1,-0.4 °C
4,CCOC(=O)c1cnc2oc3ccc(O)cc3c2c1-c1ccccc1,2 °C

# Target: Tyrosine-protein kinase JAK1 (Homo sapiens) (UniProt P23458)
# Sequence (P23458 whole entry): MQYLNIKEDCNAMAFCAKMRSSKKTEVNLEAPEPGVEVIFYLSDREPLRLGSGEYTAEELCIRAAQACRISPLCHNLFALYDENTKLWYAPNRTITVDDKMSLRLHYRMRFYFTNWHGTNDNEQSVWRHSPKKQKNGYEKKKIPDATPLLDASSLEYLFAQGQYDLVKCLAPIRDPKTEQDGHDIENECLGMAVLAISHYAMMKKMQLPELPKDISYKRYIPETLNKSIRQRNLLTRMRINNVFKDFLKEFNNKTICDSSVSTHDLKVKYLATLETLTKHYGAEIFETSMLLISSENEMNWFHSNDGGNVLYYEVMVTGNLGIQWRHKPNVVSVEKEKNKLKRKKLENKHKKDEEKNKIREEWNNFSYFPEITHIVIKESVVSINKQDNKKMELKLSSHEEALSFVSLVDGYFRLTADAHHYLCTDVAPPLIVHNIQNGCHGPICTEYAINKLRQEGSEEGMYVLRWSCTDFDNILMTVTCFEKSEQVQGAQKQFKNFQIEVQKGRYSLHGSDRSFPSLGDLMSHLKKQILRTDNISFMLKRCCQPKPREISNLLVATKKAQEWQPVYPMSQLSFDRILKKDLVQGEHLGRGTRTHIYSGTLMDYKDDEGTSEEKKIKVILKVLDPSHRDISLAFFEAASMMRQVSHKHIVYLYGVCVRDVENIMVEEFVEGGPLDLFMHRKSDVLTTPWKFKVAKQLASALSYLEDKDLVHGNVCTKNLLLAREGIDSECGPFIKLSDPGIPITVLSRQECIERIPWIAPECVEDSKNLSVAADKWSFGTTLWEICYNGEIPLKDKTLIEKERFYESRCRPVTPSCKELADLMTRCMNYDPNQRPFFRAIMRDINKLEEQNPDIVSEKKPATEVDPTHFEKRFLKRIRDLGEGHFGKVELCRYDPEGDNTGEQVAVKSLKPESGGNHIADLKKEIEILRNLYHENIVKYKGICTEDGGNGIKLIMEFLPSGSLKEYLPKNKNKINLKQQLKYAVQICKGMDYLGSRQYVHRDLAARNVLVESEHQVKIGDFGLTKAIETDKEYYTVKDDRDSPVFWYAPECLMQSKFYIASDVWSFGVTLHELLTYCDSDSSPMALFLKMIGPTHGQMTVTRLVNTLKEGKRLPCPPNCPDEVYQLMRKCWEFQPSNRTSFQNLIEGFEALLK
row,Structure (SMILES),ΔTm
1,CCOC(=O)c1c(C)[nH]c(/C=C2\C(=O)Nc3ccccc32)c1C,8.5 °C
2,O=C1c2ccccc2-[n+]2ccc3c([nH]c4ccccc43)c21 [FASCAPLYSIN CHLORIDE],-1.5 °C
3,O=C1NC(=O)c2c1c1c3ccccc3n3c1c1c2c2ccccc2n1C1CCC3O1,-0.2 °C
4,CCOC(=O)c1cnc2oc3ccc(O)cc3c2c1-c1ccccc1,8.6 °C

# Target: Serine/threonine-protein kinase Nek6 (Homo sapiens) (UniProt Q9HC98)
# Sequence (Q9HC98 whole entry): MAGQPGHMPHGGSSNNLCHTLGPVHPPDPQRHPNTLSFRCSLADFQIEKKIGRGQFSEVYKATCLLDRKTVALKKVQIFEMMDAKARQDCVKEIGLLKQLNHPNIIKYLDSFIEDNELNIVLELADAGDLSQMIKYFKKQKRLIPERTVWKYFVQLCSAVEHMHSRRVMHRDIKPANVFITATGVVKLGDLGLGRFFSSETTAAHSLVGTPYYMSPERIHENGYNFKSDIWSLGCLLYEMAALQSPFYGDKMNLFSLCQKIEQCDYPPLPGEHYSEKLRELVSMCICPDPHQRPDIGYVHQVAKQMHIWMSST
row,Structure (SMILES),ΔTm
1,CCOC(=O)c1c(C)[nH]c(/C=C2\C(=O)Nc3ccccc32)c1C,0.1 °C
2,O=C1c2ccccc2-[n+]2ccc3c([nH]c4ccccc43)c21 [FASCAPLYSIN CHLORIDE],-0.1 °C
3,O=C1NC(=O)c2c1c1c3ccccc3n3c1c1c2c2ccccc2n1C1CCC3O1,-0.3 °C
4,CCOC(=O)c1cnc2oc3ccc(O)cc3c2c1-c1ccccc1,-0.5 °C

# Target: Cyclin-dependent kinase 16 (Homo sapiens) (UniProt Q00536)
# Sequence (Q00536 whole entry): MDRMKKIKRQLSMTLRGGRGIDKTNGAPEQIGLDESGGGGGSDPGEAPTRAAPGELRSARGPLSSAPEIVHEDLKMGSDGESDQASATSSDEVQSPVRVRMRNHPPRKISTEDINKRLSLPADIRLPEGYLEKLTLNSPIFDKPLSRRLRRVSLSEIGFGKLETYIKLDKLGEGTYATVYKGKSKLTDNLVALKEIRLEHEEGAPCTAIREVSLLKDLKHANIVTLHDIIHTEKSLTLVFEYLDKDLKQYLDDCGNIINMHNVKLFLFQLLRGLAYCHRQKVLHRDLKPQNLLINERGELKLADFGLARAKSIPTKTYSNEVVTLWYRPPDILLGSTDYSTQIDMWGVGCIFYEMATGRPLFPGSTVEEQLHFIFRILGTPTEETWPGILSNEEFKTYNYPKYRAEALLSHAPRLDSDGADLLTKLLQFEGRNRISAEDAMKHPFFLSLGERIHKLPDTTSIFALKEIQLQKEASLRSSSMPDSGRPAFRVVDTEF
row,Structure (SMILES),ΔTm
1,CCOC(=O)c1c(C)[nH]c(/C=C2\C(=O)Nc3ccccc32)c1C,-0.2 °C
2,O=C1c2ccccc2-[n+]2ccc3c([nH]c4ccccc43)c21 [FASCAPLYSIN CHLORIDE],-0.6 °C
3,O=C1NC(=O)c2c1c1c3ccccc3n3c1c1c2c2ccccc2n1C1CCC3O1,0.3 °C
4,CCOC(=O)c1cnc2oc3ccc(O)cc3c2c1-c1ccccc1,-0.6 °C

# Target: T3, Mitogen-activated protein kinase kinase kinase 5 (Homo sapiens) (UniProt Q99683)
# T3 sequence (whole entry): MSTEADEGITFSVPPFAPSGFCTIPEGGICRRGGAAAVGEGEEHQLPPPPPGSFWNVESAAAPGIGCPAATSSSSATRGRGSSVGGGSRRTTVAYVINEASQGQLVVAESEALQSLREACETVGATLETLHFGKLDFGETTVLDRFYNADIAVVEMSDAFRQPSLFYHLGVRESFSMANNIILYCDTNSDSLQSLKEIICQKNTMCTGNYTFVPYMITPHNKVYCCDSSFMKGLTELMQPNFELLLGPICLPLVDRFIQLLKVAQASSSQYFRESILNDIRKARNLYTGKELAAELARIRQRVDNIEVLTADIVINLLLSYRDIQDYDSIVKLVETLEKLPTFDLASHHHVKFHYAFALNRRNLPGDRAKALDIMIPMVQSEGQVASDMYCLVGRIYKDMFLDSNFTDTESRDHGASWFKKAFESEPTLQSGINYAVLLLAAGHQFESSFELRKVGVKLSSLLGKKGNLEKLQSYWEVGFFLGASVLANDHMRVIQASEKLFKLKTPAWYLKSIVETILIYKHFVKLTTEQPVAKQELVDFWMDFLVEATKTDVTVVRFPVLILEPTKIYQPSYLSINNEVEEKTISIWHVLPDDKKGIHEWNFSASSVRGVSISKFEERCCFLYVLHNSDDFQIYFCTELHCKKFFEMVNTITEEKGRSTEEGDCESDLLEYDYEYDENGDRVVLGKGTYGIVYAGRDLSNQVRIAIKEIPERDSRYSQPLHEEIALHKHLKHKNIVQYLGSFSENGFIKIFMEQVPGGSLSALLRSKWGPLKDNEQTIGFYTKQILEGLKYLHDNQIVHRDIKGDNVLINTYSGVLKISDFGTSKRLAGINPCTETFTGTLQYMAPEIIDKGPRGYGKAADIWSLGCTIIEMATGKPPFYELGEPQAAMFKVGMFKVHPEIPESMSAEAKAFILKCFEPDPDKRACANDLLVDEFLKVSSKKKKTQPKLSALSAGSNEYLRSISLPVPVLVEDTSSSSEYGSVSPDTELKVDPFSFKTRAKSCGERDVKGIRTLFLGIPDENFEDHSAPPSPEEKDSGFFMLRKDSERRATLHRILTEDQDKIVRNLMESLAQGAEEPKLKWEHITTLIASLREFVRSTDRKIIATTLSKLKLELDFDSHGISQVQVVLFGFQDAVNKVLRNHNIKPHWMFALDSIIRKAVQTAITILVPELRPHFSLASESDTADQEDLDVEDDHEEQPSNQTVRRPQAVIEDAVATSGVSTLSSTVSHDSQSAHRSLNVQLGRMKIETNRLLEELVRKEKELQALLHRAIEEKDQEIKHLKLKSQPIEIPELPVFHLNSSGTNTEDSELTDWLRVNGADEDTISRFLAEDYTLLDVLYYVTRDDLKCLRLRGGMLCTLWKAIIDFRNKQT
row,Structure (SMILES),ΔTm
1,CCOC(=O)c1c(C)[nH]c(/C=C2\C(=O)Nc3ccccc32)c1C,-1.4 °C
2,O=C1c2ccccc2-[n+]2ccc3c([nH]c4ccccc43)c21 [FASCAPLYSIN CHLORIDE],-2.6 °C
3,O=C1NC(=O)c2c1c1c3ccccc3n3c1c1c2c2ccccc2n1C1CCC3O1,3.9 °C
4,CCOC(=O)c1cnc2oc3ccc(O)cc3c2c1-c1ccccc1,2.1 °C

# Target: Serine/threonine-protein kinase 26 (Homo sapiens) (UniProt Q9P289)
# Sequence (Q9P289 2-416 limits assumed): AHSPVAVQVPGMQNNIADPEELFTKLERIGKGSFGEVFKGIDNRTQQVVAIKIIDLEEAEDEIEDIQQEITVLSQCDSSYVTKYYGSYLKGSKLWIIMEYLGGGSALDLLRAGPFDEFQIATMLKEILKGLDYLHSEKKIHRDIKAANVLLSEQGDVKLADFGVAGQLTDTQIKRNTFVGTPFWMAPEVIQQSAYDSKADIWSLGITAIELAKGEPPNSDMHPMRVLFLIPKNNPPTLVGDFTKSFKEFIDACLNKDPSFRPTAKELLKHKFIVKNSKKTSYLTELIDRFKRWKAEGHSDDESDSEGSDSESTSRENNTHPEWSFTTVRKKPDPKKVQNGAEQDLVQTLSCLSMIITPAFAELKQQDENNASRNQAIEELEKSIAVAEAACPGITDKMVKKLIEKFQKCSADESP
row,Structure (SMILES),ΔTm
1,CCOC(=O)c1c(C)[nH]c(/C=C2\C(=O)Nc3ccccc32)c1C,0.1 °C
2,O=C1c2ccccc2-[n+]2ccc3c([nH]c4ccccc43)c21 [FASCAPLYSIN CHLORIDE],-0.8 °C
3,O=C1NC(=O)c2c1c1c3ccccc3n3c1c1c2c2ccccc2n1C1CCC3O1,1.5 °C
4,CCOC(=O)c1cnc2oc3ccc(O)cc3c2c1-c1ccccc1,-0.2 °C
